Measured values published in patent publication US20170305857A1, “N-ACYLPIPERIDINE ETHER TROPOMYOSIN-RELATED KINASE INHIBITORS” (Pfizer Limited, priority 2014, published 2017).

target: T1, recombinant His-tagged cytoplasmic domains of TRKA receptor (NTRK1, PV3144, aa 441-796) (Homo sapiens, UniProt P04629); assay: Isolated TRK enzyme assay (HTRF KinEASE-TK, PV3144 TrkA enzyme assay); assay type: biochemical; conditions: 4 nM enzyme, 40 uM ATP, 35 min, arithmetic mean where more than one reading
T1 construct: aa 441-796; His; purchased Invitrogen PV3144
T1 sequence (P04629 441-796): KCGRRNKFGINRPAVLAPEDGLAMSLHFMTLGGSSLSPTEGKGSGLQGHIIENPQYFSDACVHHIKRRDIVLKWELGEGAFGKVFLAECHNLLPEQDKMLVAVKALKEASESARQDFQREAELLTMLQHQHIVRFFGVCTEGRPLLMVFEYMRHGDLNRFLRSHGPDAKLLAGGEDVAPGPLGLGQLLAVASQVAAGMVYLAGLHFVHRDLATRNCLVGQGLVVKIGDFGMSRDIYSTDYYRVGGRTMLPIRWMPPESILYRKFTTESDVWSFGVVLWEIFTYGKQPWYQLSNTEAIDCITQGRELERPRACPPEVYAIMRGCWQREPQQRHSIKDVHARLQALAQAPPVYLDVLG
Description: Isolated TRK Enzyme assays use the HTRF KinEASE-TK kit (Cisbio Cat #62TK0PEJ) with recombinant His-tagged cytoplasmic domains of TRKA receptor sourced from Invitrogen (see table below). This activity-assay measures the phosphorylation of tyrosine residues within a substrate from the HTRF kit which has been validated by Cisbio for a variety of tyrosine kinases including the TRK receptors.
0.5 mM stock solutions of test compounds are prepared and serially diluted in 100% DMSO. […] Greiner low volume black plates containing 0.2 ul of serially diluted compound, standard and HPE/ZPE are created using the Bravo nanolitre dispenser.
1× enzyme buffer is prepared from 5× Enzymatic Buffer from the Cisbio KinEASE TK kit using MilliQ water. The buffer is then supplemented with 10 mM MgCl and 2 mM DTT (both from Sigma).
Following this preactivation step, 5 ul/well of enzyme+ATP mix is added using a Multidrop Micro to the assay plate, spotted with 0.2 ul 100% DMSO compound. This is left for 20 mins at room temperature before adding 5 ul of 2 uM TK-substrate-Biotin (from the Cisbio kit) diluted in 1× enzyme buffer (1 uM FAC) using the Multidrop Micro. The reaction is incubated at room temperature for the optimized assay reaction time (see table).
After the Detection Reagent addition, plates are covered and incubated at room temperature for 60 minutes. […] Test compound data are expressed as percentage inhibition defined by HPE and ZPE values for each plate. Percentage inhibition in the presence of test compound is plotted against compound concentration on a log scale to determine an IC50 from the resultant sigmoid curve.
Where more than one reading was taken, the arithmetic mean is presented.

**Q.** For `CC(N)c1ccc(-c2ccc(OC3CCN(C(=O)Cc4ccc(OC(F)(F)F)cc4)CC3)c(C(N)=O)c2)cc1` (racemic) [Example 103, Racemic 4′-(1-aminoethyl)-4-[(1-{[4-(trifluoromethoxy)phenyl]acetyl}piperidin-4-yl)oxy]biphenyl-3-carboxamide], which IC50 is on record?
**A.** 2.7 nM

**Q.** `Cn1cnc(-c2ccc(O[C@H]3CCN(C(=O)Cc4ccc(OC(F)(F)F)cc4)C[C@@H]3F)c(C(N)=O)c2)c1` (single isomer, unassigned) [Example 8] was tested. Which IC50 did it give?
**A.** 1.5 nM

**Q.** For `Cn1cnc(-c2ccc(O[C@@H]3CCN(C(=O)Cc4ccc(OC(F)(F)F)cc4)C[C@H]3F)c(C(N)=O)c2)c1` (single isomer, unassigned) [Example 112], which IC50 is on record?
**A.** 6.4 nM

**Q.** For `CC(N)c1ccc(-c2cnc(OC3CCN(C(=O)Cc4ccc(OC(F)(F)F)cc4)CC3)c(C(N)=O)c2)cc1` (stereo in doubt) [Example 96, 5-{4-[(1S)-1-aminoethyl]phenyl}-2-[(1-{[4-(trifluoromethoxy)phenyl]acetyl}piperidin-4-yl)oxy]pyridine-3-carboxamide], which IC50 is on record?
**A.** 5 nM

**Q.** For `NC(=O)c1cc(-c2cnn(C3CS(=O)(=O)C3)c2)ccc1O[C@@H]1CCN(C(=O)Cc2ccc(OC(F)(F)F)cc2)C[C@@H]1F` [Example 1, 5-[1-(1,1-dioxidothietan-3-yl)-1H-pyrazol-4-yl]-2-{[(3S,4R)-3-fluoro-1-{[4-(trifluoromethoxy)phenyl]acetyl}piperidin-4-yl]oxy}benzamide], which IC50 is on record?
**A.** 0.4 nM

**Q.** For `Cn1cc(-c2cnc(O[C@H]3CCN(C(=O)Cc4ccc(OC(F)(F)F)cc4)C[C@H]3F)c(C(N)=O)c2)cn1` [Example 4, 2-{[(3R,4S)-3-fluoro-1-{[4-(trifluoromethoxy)phenyl]acetyl}piperidin-4-yl]oxy}-5-(1-methyl-1H-pyrazol-4-yl)pyridine-3-carboxamide], which IC50 is on record?
**A.** 1.2 nM

**Q.** For `NC(=O)c1cc(-c2cn[nH]c2)ccc1O[C@H]1CCN(C(=O)Cc2ccc(OC(F)(F)F)cc2)C[C@H]1F` [Example 5, 2-{[(3R,4S)-3-fluoro-1-{[4-(trifluoromethoxy)phenyl]acetyl}piperidin-4-yl]oxy}-5-(1H-pyrazol-4-yl)benzamide], which IC50 is on record?
**A.** 0.9 nM

**Q.** For `Cn1cnc(-c2ccc(O[C@@H]3CCN(C(=O)Cc4ccc(OC(F)(F)F)cc4)C[C@@H]3F)c(C(N)=O)c2)c1` [Example 6, 2-{[(3S,4R)-3-fluoro-1-(2-(4-(trifluoromethoxy)phenyl)acetyl)piperidin-4-yl]oxy}-5-(1-methyl-1H-imidazol-4-yl)benzamide], which IC50 is on record?
**A.** 1.5 nM

**Q.** How did the IC50 turn out when `Cn1cnc(-c2cnc(O[C@@H]3CCN(C(=O)Cc4ccc(OC5CC5)cc4)C[C@@H]3F)c(C(N)=O)c2)c1` [Example 7, 2-{[(3S,4R)-1-{[4-(cyclopropyloxy)phenyl]acetyl}-3-fluoropiperidin-4-yl]oxy}-5-(1-methyl-1H-imidazol-4-yl)pyridine-3-carboxamide] was run?
**A.** 1.4 nM

**Q.** How did the IC50 turn out when `Cn1cc(-c2ccc(OC3CCN(C(=O)Cc4ccc(OC(F)(F)F)cn4)CC3)c(C(N)=O)c2)cn1` [Example 10, 5-(1-methyl-1H-pyrazol-4-yl)-2-[(1-{[5-(trifluoromethoxy)pyridin-2-yl]acetyl}piperidin-4-yl)oxy]benzamide] was run?
**A.** 9.9 nM

**Q.** Which IC50 does the source give for `NC(=O)c1cc(-c2cnn(C3CS(=O)(=O)C3)c2)ccc1OC1CCN(C(=O)Cc2ccc(OC(F)(F)F)cc2)CC1` [Example 13, 5-[1-(1,1-dioxidothietan-3-yl)-1H-pyrazol-4-yl]-2-[(1-{[4-(trifluoromethoxy)phenyl]acetyl}piperidin-4-yl)oxy]benzamide] here?
**A.** 2.2 nM

**Q.** `Cn1cnc(-c2ccc(OC3CCN(C(=O)Cc4ccc(OC(F)(F)F)c(Cl)c4)CC3)c(C(N)=O)c2)c1` [Example 16, 2-[(1-{[3-chloro-4-(trifluoromethoxy)phenyl]acetyl}piperidin-4-yl)oxy]-5-(1-methyl-1H-imidazol-4-yl)benzamide] was tested. Which IC50 did it give?
**A.** 10.5 nM

**Q.** With `Cn1cnc(-c2ccc(OC3CCN(C(=O)Cc4ccc(OC5CC5)cc4)CC3)c(C(N)=O)c2)c1` [Example 17, 2-[(1-{[4-(cyclopropyloxy)phenyl]acetyl}piperidin-4-yl)oxy]-5-(1-methyl-1H-imidazol-4-yl)benzamide] as the molecule, how does the IC50 read?
**A.** 10.4 nM
